What all share (type): in vivo, Lewis rats
The test system of assay [1] is Experimental Autoimmune Neuritis. Description: Luxol Fast Blue staining, semiquantitative histological score of EAN sciatic nerves. Conditions: EAN rats, Day 16, 1 mg/kg in water vehicle, LFB staining of sciatic nerves, scale 0-3. Here is the method:
(§1) Male Lewis rats (8-10 weeks, 180-200 g, Elevage-Janvier, France) were housed under a 12 h light-12 h dark cycle and with free access to food and water. All animal procedures were in accordance with a protocol approved by the local Administration District Official Committee. All efforts were made to minimize the number of animals and their suffering.
For EAN induction, rats were immunized by subcutaneous injection into both hind footpads with 100 μL of an inoculum containing 100 μg of synthetic neuritogenic P2 57-81 peptide (GeneScript Corporation, Scotch Plains, N.J., USA). […]
The routine Luxol Fast Blue (LFB) staining was applied to show myelin. […] Briefly, four cross-sections from root and middle level of both sides of EAN rats were analyzed. All perivascular areas present in cross-sections were evaluated by two observers unaware of the treatment, and the degree of pathological alteration was graded semiquantitatively on the following scale: 0=normal perivascular area; 1=mild cellular infiltrate adjacent to the vessel; 2=cellular infiltration plus demyelination in immediate proximity to the vessel; and 3=cellular infiltration and demyelination throughout the section. […]

The test system is the same in assay [2]. The assay can be described thus: Immunohistochemistry of inflammatory cell infiltration in EAN sciatic nerves. Conditions: EAN rats, Day 16, 1 mg/kg, sciatic nerve cross-sections, n=5.
The test system is the same in assay [3]. The assay can be described thus: EAN clinical score, suppressive treatment. The following applies: EAN rats, 1 mg/kg intragastrically once daily from immunization until Day 22; scale 0-10; control maximal 4.80±0.51 at Day 13. As to the method: as §1
(§2) For EAN induction, rats were immunized by subcutaneous injection into both hind footpads with 100 μL of an inoculum containing 100 μg of synthetic neuritogenic P2 57-81 peptide (GeneScript Corporation, Scotch Plains, N.J., USA). The peptide was dissolved in phosphate buffered saline (PBS) (2 mg/mL) and then emulsified with an equal volume of complete Freund's adjuvant (CFA) containing 2 mg/mL mycobacterium tuberculosis to get a final concentration of 1 mg/mL.
EAN clinical scores were evaluated every day as follows: 0=normal, 1=reduced tonus of tail, 2=limp tail, impaired righting, 3=absent righting, 4=gait ataxia, 5=mild paresis of the hind limbs, 6=moderate paraparesis, 7=severe paraparesis or paraplegia of the hind limbs, 8=tetraparesis, 9=moribund, and 10=death (Zhang et al., 2009A).
Compound A was tested at a concentration of 1 mg/kg (suspended in a water vehicle). The compound A suspension was intragastrically administrated immediately after induction and then once daily until Day 22 (5 rats per group). […]

Assay [4] shares this test system. Description: Body weight course in EAN rats. Conditions: 1 mg/kg once daily, control showed significant weight loss Day 10 to 18. Here is the method: as §1, §2
Compound A was tested at a concentration of 1 mg/kg (suspended in a water vehicle). The compound A suspension was intragastrically administrated immediately after induction and then once daily until Day 22 (5 rats per group). For control EAN rats, the same volume of 1% CMC in water was given.

SMILES strings stand for the structures. Where a name gives a salt, the structure may show the parent alone.

Consider `CCC(N)(CO)CCc1ccc(Sc2cccc(OCc3ccccc3)c2)cc1Cl` (stereo not drawn) [Compound A, 2-amino-4-[4-(3-benzyloxyphenylthio)-2-chlorophenyl]-2-ethylbutane-1-ol hydrochloride], for which the “Mean Histological Score” value in assay [1] is given as 0.10. For the same molecule, in assay [2], the “Area of immunoreactivity/area of sciatic nerves (%) for B cells (OX22+)” value is reported as less than 0.01%, the “Area of immunoreactivity/area of sciatic nerves (%) for Macrophages (ED1+)” value is recorded as less than 0.05% and the “Area of immunoreactivity/area of sciatic nerves (%) for T cells (W3/13+)” value is on record as less than 0.01%. The molecule also yielded a mean neurological score in assay [3] of less than 0.1. For the same molecule, the weight loss result in assay [4] is recorded as “a reduced level of weight loss was observed from Day 13 to 15”.

Values taken from patent US20110190398A1, “USE OF IMMUNOS[…] IN A NEW INDICATION” (NOVARTIS AG, priority 2008, published 2011).
